{"source": "patent US7977332B2", "about": "“Insecticidal N-(heteroarylalkyl)alkanediamine derivatives” (FMC Corporation, priority 2003, dated 2011)", "data": [{"system": "tobacco budworm (Heliothis virescens [Fabricius])", "assay": "surface-treated diet test against tobacco budworm", "assay_type": "in vivo", "conditions": "0.25 millimolar on the surface of the diet; second instar larvae; five-day exposure", "method": "(§1) Candidate insecticides were evaluated for activity against the tobacco budworm (Heliothis virescens [Fabricius]) in a surface-treated diet test.\n(§2) In this test one mL of molten (65-70° C.) wheat germ-based artificial diet was pipetted into each well of a four by six (24 well) multi-well plate (ID# 430345-15.5 mm dia.×17.6 mm deep; Corning Costar Corp., One Alewife Center, Cambridge, Mass. 02140). The diet was allowed to cool to ambient temperature before treatment with candidate insecticide.\n(§3) For a determination of insecticidal activity, solutions of the candidate insecticides were prepared for testing using a Packard 204DT Multiprobe® Robotic System (Packard Instrument Company, 800 Research Parkway, Meriden, Conn. 06450), in which the robot first diluted a standard 50 millimolar DMSO solution of candidate insecticide with a 1:1 water/acetone solution (V/V) in a ratio of 1:7 stock solution to water/acetone. The robot subsequently pipetted 40 microliters of the so-prepared solution onto the surface of the diet in each of three wells in the 24 multi-well plate. The process was repeated with solutions of seven other candidate insecticides. Once treated, the contents of the multi-well plate were allowed to dry, leaving 0.25 millimoles of candidate insecticide on the surface of the diet, or a concentration of 0.25 millimolar. Appropriate untreated controls containing only DMSO on the diet surface were also included in this test.\n(§4) For evaluations of the insecticidal activity of a candidate insecticide at varying rates of application, the test was established as described above using sub-multiples of the standard 50 millimolar DMSO solution of candidate insecticide. For example, the standard 50 millimolar solution was diluted by the robot with DMSO to give 5, 0.5, 0.05, 0.005, 0.0005 millimolar, or more dilute solutions of the candidate insecticide. In these evaluations there were six replicates of each rate of application placed on the surface of the diet in the 24 multi-well plate, for a total of four rates of application of candidate insecticide in each plate.\n(§5) In each well of the test plate was placed one second instar tobacco budworm larvea, each weighing approximately five milligrams. After the larvae were placed in each well, the plate was sealed with clear polyfilm adhesive tape. The tape over each well was perforated to ensure an adequate air supply. The plates were then held in a growth chamber at 25° C. and 60% relative humidity for five days (light 14 hours/day).\n(§6) After the five-day exposure period insecticidal activity for each rate of application of candidate insecticide was assessed as percent inhibition of insect weight relative to the weight of insects from untreated controls, and percent mortality when compared to the total number of insects infested.\n(§7) The test compounds of formula I are identified by numbers that correspond to those in Table 1.", "units": {"Percent Mortality": "%"}, "values": [{"smiles": "C=CCN(CCNC(=C[N+](=O)[O-])SCc1ccc(C(F)(F)F)cc1)Cc1ccc(Cl)nc1", "note": "[Compound 328]", "Percent Mortality": 83}]}, {"system": "tobacco budworm (Heliothis virescens [Fabricius])", "assay": "surface-treated diet test against tobacco budworm", "assay_type": "in vivo", "conditions": "0.25 millimolar on the surface of the diet; second instar larvae; five-day exposure; insect weight relative to untreated controls", "method": "as §1, §2, §3, §4, §5, §6, §7", "units": {"Percent Growth Inhibition": "%"}, "values": [{"smiles": "O=[N+]([O-])C=C(NCCN(Cc1ccc(Cl)nc1)Cc1ccc(Cl)nc1)SCc1ccc(C(F)(F)F)cc1", "note": "[Compound 324]", "Percent Growth Inhibition": 100}, {"smiles": "COc1ccccc1CSC(=C[N+](=O)[O-])NCCN(Cc1ccc(Cl)nc1)Cc1ccc(Cl)nc1", "note": "[Compound 325]", "Percent Growth Inhibition": 100}, {"smiles": "COc1cccc(CSC(=C[N+](=O)[O-])NCCN(Cc2ccc(Cl)nc2)Cc2ccc(Cl)nc2)c1", "note": "[Compound 326]", "Percent Growth Inhibition": 100}, {"smiles": "COc1ccc(CSC(=C[N+](=O)[O-])NCCN(Cc2ccc(Cl)nc2)Cc2ccc(Cl)nc2)cc1", "note": "[Compound 327]", "Percent Growth Inhibition": 100}, {"smiles": "C=CCN(CCNC(=C[N+](=O)[O-])SCc1ccc(C(F)(F)F)cc1)Cc1ccc(Cl)nc1", "note": "[Compound 328]", "Percent Growth Inhibition": 98}, {"smiles": "C#CCN(CCN1COCNC1=N[N+](=O)[O-])Cc1ccc(Cl)nc1", "note": "[Compound 558]", "Percent Growth Inhibition": 85}]}]}
